In patent publication US20100035866A1, “NOVEL SUBSTITUTED-1, 1-DIOXO-BENZO[1,2,4]THIADIAZIN-3ONES, PREPARATION METHOD THEREOF, AND PHARMACEUTICAL COMPOSITION CONTAINING THE SAME” (KOREA RESEARCH INSTITUTE OF CHEMICAL TECHNOLOGY, priority 2006, published 2010):

How the values were obtained:
[1] = biological target: Human serotonin 5-HT6 receptor (Homo sapiens, UniProt P50406); test: [3H]LSD binding assay on cloned 5-HT6 receptor; details: IC50 (nM), binding affinity to the 5-HT6 receptor, Table 2; 1.87 nM [3H]LSD, cloned human receptor membranes from Sf21 cells, 37° C. 60 min
Sequence of Human serotonin 5-HT6 receptor (P50406 whole entry): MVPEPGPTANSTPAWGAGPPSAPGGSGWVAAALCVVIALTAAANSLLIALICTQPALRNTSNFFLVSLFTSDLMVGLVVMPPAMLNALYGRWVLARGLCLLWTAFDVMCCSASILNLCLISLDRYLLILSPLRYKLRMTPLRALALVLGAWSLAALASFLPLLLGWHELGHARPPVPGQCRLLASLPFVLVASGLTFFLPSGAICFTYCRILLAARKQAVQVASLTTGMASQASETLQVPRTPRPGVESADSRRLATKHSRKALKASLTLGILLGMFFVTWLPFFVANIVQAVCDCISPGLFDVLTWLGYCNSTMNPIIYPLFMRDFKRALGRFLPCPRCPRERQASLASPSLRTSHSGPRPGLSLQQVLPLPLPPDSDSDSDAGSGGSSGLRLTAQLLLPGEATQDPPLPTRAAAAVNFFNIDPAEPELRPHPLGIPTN

| Compound | melting point [°C] | IC50 [1] [nM] |
| --- | --- | --- |
| Cc1ccc(CN2C(=O)N(Cc3ccccc3)c3cc(Cl)cc(N4CCN(C)CC4)c3S2(=O)=O)o1 [Example 43, 4-Benzyl-6-chloro-2-(5-methyl-furan-2-ylmethyl)-8-(4-methyl-piperazin-1-yl)-1,1-dioxo-1,4-dihydro-2H-1λ^6-benzo[1,2,4]thiadiazin-3-one] | 130 to 131 | 75.9 |
| O=C1N(Cc2ccccc2)c2cc(Cl)cc(N3CCNCC3)c2S(=O)(=O)N1Cc1ccccc1F [Example 45, 4-Benzyl-6-chloro-2-(2-fluoro-benzyl)-1,1-dioxo-8-piperazin-1-yl-1,4-dihydro-2H-1λ^6-benzo[1,2,4]thiadiazin-3-one] | 120 to 121 | 18.7 |
| O=C1N(Cc2ccccc2)c2cc(Cl)cc(N3CCNCC3)c2S(=O)(=O)N1Cc1ccccc1Br [Example 48, 4-Benzyl-2-(2-bromo-benzyl)-6-chloro-1,1-dioxo-8-piperazin-1-yl-1,4-dihydro-2H-1λ^6-benzo[1,2,4]thiadiazin-3-one] | 144 to 145 | 46 |
| O=C1N(Cc2ccccc2)c2cc(Cl)cc(N3CCNCC3)c2S(=O)(=O)N1Cc1ccc(I)cc1 [Example 49, 4-Benzyl-6-chloro-2-(4-iodo-benzyl)-1,1-dioxo-8-piperazin-1-yl-1,4-dihydro-2H-1λ^6-benzo[1,2,4]thiadiazin-3-one] | 153 to 154 | 17.1 |
| Cc1ccccc1CN1C(=O)N(Cc2ccccc2)c2cc(Cl)cc(N3CCNCC3)c2S1(=O)=O [Example 50, 4-Benzyl-6-chloro-2-(2-methyl-benzyl)-1,1-dioxo-8-piperazin-1-yl-1,4-dihydro-2H-1λ^6-benzo[1,2,4]thiadiazin-3-one] | 70 to 72 | 22.2 |
| COc1ccccc1CN1C(=O)N(Cc2ccccc2)c2cc(Cl)cc(N3CCNCC3)c2S1(=O)=O [Example 51, 4-Benzyl-6-chloro-2-(2-methoxy-benzyl)-1,1-dioxo-8-piperazin-1-yl-1,4-dihydro-2H-1λ^6-benzo[1,2,4]thiadiazin-3-one] | 129 to 130 | 48.9 |
| O=C1N(Cc2ccccc2)c2cc(Cl)cc(N3CCNCC3)c2S(=O)(=O)N1Cc1ccccc1[N+](=O)[O-] [Example 55, 4-Benzyl-6-chloro-2-(2-nitro-benzyl)-1,1-dioxo-8-piperazin-1-yl-1,4-dihydro-2H-1λ^6-benzo[1,2,4]thiadiazin-3-one] | 134 to 135 | 33 |
| N#Cc1ccc(CN2C(=O)N(Cc3ccccc3)c3cc(Cl)cc(N4CCNCC4)c3S2(=O)=O)cc1 [Example 57, 4-(4-Benzyl-6-chloro-1,1,3-trioxo-8-piperazin-1-yl-3,4-dihydro-1H-1λ^6-benzo[1,2,4]thiadiazin-2-ylmethyl)-benzonitrile] | 135 to 137 | 18 |
| COc1ccccc1N1C(=O)N(Cc2ccccc2)c2cc(Cl)cc(N3CCNCC3)c2S1(=O)=O [Example 61, 4-Benzyl-6-chloro-2-(2-methoxy-phenyl)-1,1-dioxo-8-piperazin-1-yl-1,4-dihydro-2H-1λ^6-benzo[1,2,4]thiadiazin-3-one] | 175 to 176 | 50.7 |
| COc1ccc(N2C(=O)N(Cc3ccccc3)c3cc(Cl)cc(N4CCNCC4)c3S2(=O)=O)cc1 [Example 63, 4-Benzyl-6-chloro-2-(4-methoxy-phenyl)-1,1-dioxo-8-piperazin-1-yl-1,4-dihydro-2H-1λ^6-benzo[1,2,4]thiadiazin-3-one] | 155 to 156 | 28 |
| O=C1N(Cc2ccccc2)c2cc(Cl)cc(N3CCOCC3)c2S(=O)(=O)N1Cc1ccccc1Cl [Example 69, 4-Benzyl-6-chloro-2-(2-chloro-benzyl)-8-morpholin-4-yl-1,1-dioxo-1,4-dihydro-2H-1λ^6-benzo[1,2,4]thiadiazin-3-one] | 171 to 172 | > 1000 |
| O=C1N(Cc2ccccc2)c2cc(Cl)cc(N3CCN(c4ccccn4)CC3)c2S(=O)(=O)N1Cc1ccccc1Cl [Example 70, 4-Benzyl-6-chloro-2-(2-chloro-benzyl)-1,1-dioxo-8-(4-pyridin-2-yl-piperazin-1-yl)-1,4-dihydro-2H-1λ^6-benzo[1,2,4]thiadiazin-3-one] | 159 to 161 | > 1000 |
| C[C@@H]1CN(c2cc(Cl)cc3c2S(=O)(=O)N(Cc2ccccc2Cl)C(=O)N3Cc2ccccc2)CCN1 [Example 71, 4-Benzyl-6-chloro-2-(2-chloro-benzyl)-8-[(R)-3-methyl-piperazin-1-yl]-1,1-dioxo-1,4-dihydro-2H-1λ^6-benzo[1,2,4]thiadiazin-3-one] | 134 to 136 | 147 |
| O=C1N(Cc2ccccc2)c2cc(Cl)cc(N3CCN4CCC[C@H]4C3)c2S(=O)(=O)N1Cc1ccccc1Cl [Example 73, 4-Benzyl-6-chloro-2-(2-chloro-benzyl)-8-[(6S)-1,4-diazabicyclo[4.3.0]non-4-yl]-1,1-dioxo-1,4-dihydro-2H-1λ^6-benzo[1,2,4]thiadiazin-3-one] | 143 to 144 | 16 |
| O=C1N(Cc2ccccc2)c2cc(Cl)cc(N3CCN4CCCC[C@@H]4C3)c2S(=O)(=O)N1Cc1ccccc1Cl [Example 75, 4-Benzyl-6-chloro-2-(2-chloro-benzyl)-8-[(6R)-1,4-diazabicyclo[4.4.0]dec-4-yl]-1,1-dioxo-1,4-dihydro-2H-1λ^6-benzo[1,2,4]thiadiazin-3-one] | 157 to 159 | 396 |

Now from value to compound:

| melting point [°C] | IC50 [1] [nM] | Compound |
| --- | --- | --- |
| 151 to 152 | 6.9 | CN1CCN(c2cc(Cl)cc3c2S(=O)(=O)N(CCc2ccccc2)C(=O)N3Cc2ccccc2)CC1 [Example 37, 4-Benzyl-6-chloro-8-(4-methyl-piperazin-1-yl)-1,1-dioxo-2-phenethyl-1,4-dihydro-2H-1λ^6-benzo[1,2,4]thiadiazin-3-one] |
| 107 to 108 | 7.7 | CN1CCN(c2cc(Cl)cc3c2S(=O)(=O)N(Cc2ccncc2)C(=O)N3Cc2ccccc2)CC1 [Example 42, 4-Benzyl-6-chloro-8-(4-methyl-piperazin-1-yl)-1,1-dioxo-2-pyridin-4-ylmethyl-1,4-dihydro-2H-1λ^6-benzo[1,2,4]thiadiazin-3-one] |
| 126 to 127 | 15.9 | O=C1N(Cc2ccccc2)c2cc(Cl)cc(N3CCNCC3)c2S(=O)(=O)N1Cc1ccccc1Cl [Example 47, 4-Benzyl-6-chloro-2-(2-chloro-benzyl)-1,1-dioxo-8-piperazin-1-yl-1,4-dihydro-2H-1λ^6-benzo[1,2,4]thiadiazin-3-one] |
| 136 to 139 | 8.4 | COC(=O)c1ccc(CN2C(=O)N(Cc3ccccc3)c3cc(Cl)cc(N4CCNCC4)c3S2(=O)=O)cc1 [Example 56, 4-(4-Benzyl-6-chloro-1,1,3-trioxo-8-piperazin-1-yl-3,4-dihydro-1H-1λ^6-benzo[1,2,4]thiadiazin-2-ylmethyl)-benzoic acid methyl ester] |
| 275 to 277 | 15.5 | O=C1N(Cc2ccccc2)c2cc(Cl)cc(N3CCNCC3)c2S(=O)(=O)N1c1ccccc1 [Example 60, 4-Benzyl-6-chloro-1,1-dioxo-2-phenyl-8-piperazin-1-yl-1,4-dihydro-2H-1λ^6-benzo[1,2,4]thiadiazin-3-one] |
| 158 to 161 | 4.6 | CCN1C(=O)N(Cc2ccccc2)c2cc(Cl)cc(N3CCNCC3)c2S1(=O)=O [Example 64, 4-Benzyl-6-chloro-2-ethyl-1,1-dioxo-8-piperazin-1-yl-1,4-dihydro-2H-1λ^6-benzo[1,2,4]thiadiazin-3-one] |
| 164 to 166 | 6.9 | O=C1N(Cc2ccccc2)c2cc(Cl)cc(N3CCNCC3)c2S(=O)(=O)N1Cc1cccc2ccccc12 [Example 68, 4-Benzyl-6-chloro-2-naphthalen-1-ylmethyl-1,1-dioxo-8-piperazin-1-yl-1,4-dihydro-2H-1λ^6-benzo[1,2,4]thiadiazin-3-one] |
| 142 to 143 | 6.8 | C[C@H]1CN(c2cc(Cl)cc3c2S(=O)(=O)N(Cc2ccccc2Cl)C(=O)N3Cc2ccccc2)CCN1 [Example 72, 4-Benzyl-6-chloro-2-(2-chloro-benzyl)-8-[(S)-3-methyl-piperazin-1-yl]-1,1-dioxo-1,4-dihydro-2H-1λ^6-benzo[1,2,4]thiadiazin-3-one] |
